According to ChEMBL document CHEMBL3044935, “Synthesis and in vitro microbiological evaluation of novel 2,4-diaryl-3-azabicyclo[3.3.1]nonan-9,5-spiro-1,2,4-triazolidine-3-thiones” (2012):
≈ marks a conversion by molar mass, not a printed value.

How the values were obtained:
Assay type in all cases: functional
Nannizzia gypsea = assay: Antimicrobial activity against Microsporum gypseum after 72 to 96 hr by two-fold serial dilution method
Aspergillus flavus = assay: Antimicrobial activity against Aspergillus flavus after 72 to 96 hr by two-fold serial dilution method
Staphylococcus aureus = assay: Antimicrobial activity against Staphylococcus aureus after 24 hr by two-fold serial dilution method
Rhizopus = assay: Antimicrobial activity against Rhizopus after 72 to 96 hr by two-fold serial dilution method
Vibrio cholerae = assay: Antimicrobial activity against Vibrio cholerae after 24 hr by two-fold serial dilution method
Salmonella typhi = assay: Antimicrobial activity against Salmonella enterica subsp. enterica serovar Typhi after 24 hr by two-fold serial dilution method
Streptococcus = assay: Antimicrobial activity against beta-hemolytic Streptococcus after 24 hr by two-fold serial dilution method
Klebsiella pneumoniae = assay: Antimicrobial activity against Klebsiella pneumoniae after 24 hr by two-fold serial dilution method
Shigella flexneri = assay: Antimicrobial activity against Shigella flexneri after 24 hr by two-fold serial dilution method
Mucor = assay: Antimicrobial activity against Mucor after 72 to 96 hr by two-fold serial dilution method
Escherichia coli = assay: Antimicrobial activity against Escherichia coli after 24 hr by two-fold serial dilution method

SMILES | MIC (Nannizzia gypsea) | MIC (Aspergillus flavus) | MIC (Staphylococcus aureus) | MIC (Rhizopus) | MIC (Vibrio cholerae) | MIC (Salmonella typhi) | MIC (Streptococcus) | MIC (Klebsiella pneumoniae) | MIC (Shigella flexneri) | MIC (Mucor) | MIC (Escherichia coli)
COc1ccc(C2NC(c3ccc(OC)cc3)C3CCCC2C32NNC(=S)N2)cc1 (stereo not drawn) | 50 µg/mL (≈ 118 µM) | 100 µg/mL (≈ 236 µM) | 100 µg/mL (≈ 236 µM) | 25 µg/mL (≈ 58.9 µM) | 50 µg/mL (≈ 118 µM) | 200 µg/mL (≈ 471 µM) | 100 µg/mL (≈ 236 µM) | 12.5 µg/mL (≈ 29.4 µM) | 25 µg/mL (≈ 58.9 µM) | 50 µg/mL (≈ 118 µM) | 100 µg/mL (≈ 236 µM)
S=C1NNC2(N1)C1CCCC2C(c2ccccc2)NC1c1ccccc1 (stereo not drawn) | 200 µg/mL (≈ 549 µM) | 100 µg/mL (≈ 274 µM) | 100 µg/mL (≈ 274 µM) | 200 µg/mL (≈ 549 µM) | 50 µg/mL (≈ 137 µM) | 50 µg/mL (≈ 137 µM) | 100 µg/mL (≈ 274 µM) | 100 µg/mL (≈ 274 µM) | 100 µg/mL (≈ 274 µM) | 200 µg/mL (≈ 549 µM) | 200 µg/mL (≈ 549 µM)
Fc1ccc(C2NC(c3ccc(F)cc3)C3CCCC2C32NNC(=S)N2)cc1 (stereo not drawn) | 6.25 µg/mL (≈ 15.6 µM) | 6.25 µg/mL (≈ 15.6 µM) | 6.25 µg/mL (≈ 15.6 µM) | 12.5 µg/mL (≈ 31.2 µM) | 12.5 µg/mL (≈ 31.2 µM) | 100 µg/mL (≈ 250 µM) | 12.5 µg/mL (≈ 31.2 µM) | 6.25 µg/mL (≈ 15.6 µM) | 50 µg/mL (≈ 125 µM) | 100 µg/mL (≈ 250 µM) | 100 µg/mL (≈ 250 µM)
S=C1NNC2(N1)C1CCCC2C(c2ccc(Cl)cc2)NC1c1ccc(Cl)cc1 (stereo not drawn) | 12.5 µg/mL (≈ 28.8 µM) | 12.5 µg/mL (≈ 28.8 µM) | 12.5 µg/mL (≈ 28.8 µM) | 25 µg/mL (≈ 57.7 µM) | 25 µg/mL (≈ 57.7 µM) | 12.5 µg/mL (≈ 28.8 µM) | 50 µg/mL (≈ 115 µM) | 100 µg/mL (≈ 231 µM) | 100 µg/mL (≈ 231 µM) | 12.5 µg/mL (≈ 28.8 µM) | 12.5 µg/mL (≈ 28.8 µM)
S=C1NNC2(N1)C1CCCC2C(c2ccc(Br)cc2)NC1c1ccc(Br)cc1 (stereo not drawn) | 25 µg/mL (≈ 47.9 µM) | 6.25 µg/mL (≈ 12 µM) | 12.5 µg/mL (≈ 23.9 µM) | 12.5 µg/mL (≈ 23.9 µM) | 25 µg/mL (≈ 47.9 µM) | 12.5 µg/mL (≈ 23.9 µM) | 6.25 µg/mL (≈ 12 µM) | 100 µg/mL (≈ 191 µM) | 50 µg/mL (≈ 95.7 µM) | 12.5 µg/mL (≈ 23.9 µM) | 100 µg/mL (≈ 191 µM)
O=[N+]([O-])c1ccc(C2NC(c3ccc([N+](=O)[O-])cc3)C3CCCC2C32NNC(=S)N2)cc1 (stereo not drawn) | 12.5 µg/mL (≈ 27.5 µM) | 25 µg/mL (≈ 55 µM) | 12.5 µg/mL (≈ 27.5 µM) | 12.5 µg/mL (≈ 27.5 µM) | 25 µg/mL (≈ 55 µM) | 100 µg/mL (≈ 220 µM) | 12.5 µg/mL (≈ 27.5 µM) | 50 µg/mL (≈ 110 µM) | 50 µg/mL (≈ 110 µM) | 25 µg/mL (≈ 55 µM) | 100 µg/mL (≈ 220 µM)
Cc1ccc(C2NC(c3ccc(C)cc3)C3CCCC2C32NNC(=S)N2)cc1 (stereo not drawn) | 50 µg/mL (≈ 127 µM) | 200 µg/mL (≈ 509 µM) | 50 µg/mL (≈ 127 µM) | 50 µg/mL (≈ 127 µM) | 50 µg/mL (≈ 127 µM) | 50 µg/mL (≈ 127 µM) | 50 µg/mL (≈ 127 µM) | 200 µg/mL (≈ 509 µM) | 200 µg/mL (≈ 509 µM) | 100 µg/mL (≈ 255 µM) | 200 µg/mL (≈ 509 µM)
O=C(O)c1cn(C2CC2)c2cc(N3CCNCC3)c(F)cc2c1=O [CIPROFLOXACIN] |  |  | 12.5 µg/mL (≈ 37.7 µM) |  | 25 µg/mL (≈ 75.4 µM) | 25 µg/mL (≈ 75.4 µM) | 12.5 µg/mL (≈ 37.7 µM) | 12.5 µg/mL (≈ 37.7 µM) | 25 µg/mL (≈ 75.4 µM) |  | 25 µg/mL (≈ 75.4 µM)
OC(Cn1cncn1)(Cn1cncn1)c1ccc(F)cc1F [FLUCONAZOLE] | 12.5 µg/mL (≈ 40.8 µM) | 25 µg/mL (≈ 81.6 µM) |  | 25 µg/mL (≈ 81.6 µM) |  |  |  |  |  | 12.5 µg/mL (≈ 40.8 µM) | 
